Results as given in US20050075501A1, “Ammonium compounds bearing and electrophilic fluorine, reagent containing same, method using same and synthesis method for obtaining them” (priority 2000, published 2005).

Experiment: Solubility of N-fluorocinchonidinium tetrafluoroborate in solvents
Assay type: physicochemical
Conditions: acetonitrile
Protocol: ^19F NMR (282 MHz, CD3CN/CCl3F): 37.71 (s, 1F); −154.52 (s, 1F); −154.60 (s, 3F). (CD3CN/TFA): 118.35 (s, 1F); −74.12 (s, 1F); −74.17 (s, 3F). FTIR: (ν N—F) 927 cm^−1 Melting point: 189+/−2° C. […] MS (FAB^+, glycerol) 313 (cation^+, 18%) 295 (cation-H2O, 100) . TLC: acetone/heptane: 9/1; Rf=0.3.

C=CC1C[N+]2(F)CCC1CC2C(O)c1ccnc2ccccc12.F[B-](F)(F)F (stereo not shown) [N-fluorocinchonidinium Tetrafluoroborate]
Solubility: ca. 200 mg/ml
